Series [1] has as its system Recombinant Protein Kinase C. Kind of series: Protein Kinase C kinase reaction, Histone H1, autoradiography (Example 79). The following applies: 0.05, 0.5, or 10 μM, 15 minutes at room temperature. Format: biochemical. As to the method: Recombinant Protein Kinase C (Calbiochem) (100 ng) was incubated with (±)-cis-3-(5,6-dihydro-4H-pyrrolo[3,2,1-ij]quinolin-1yl)-4(1H-indol-3-yl)pyrrolidine-2,5-dione or (±)-trans-3-(5,6-dihydro-4H-pyrrolo[3,2,1-ij]quinolin-1-yl)-4(1H-indol-3-yl)pyrrolidine-2,5-dione at 0.05, 0.5, or 10 μM for 15 minutes at room temperature. Subsequently, a radioactive labeling mix in kinase buffer (20 mM Tris-HCl pH 7.5, 10 mM MgCl2) containing 20 μM ATP, 0.2 μCi/μl γ^32P-ATP, 0.2 μg/μl Histone H1 (Upstate) was added to each sample. The kinase reaction was carried out for 5 minutes at room temperature. Reaction products were analyzed by 12% SDS-PAGE and autoradiography.

Series [2] has as its system MDA-MB-231 human breast cancer xenograft. Description: MDA-MB-231 xenograft, intraperitoneal 160 mg/kg (Example 81). Format: in vivo, mice. The following applies: 160 mg/kg intraperitoneally, q3d×10, lipiodol vehicle. As to the method:
Athymic female nude mice (CRL:NU/NU-nuBR) were injected subcutaneously in the flank with MDA-MB-231 human breast cancer cells (8×10^6 cells/mouse). Prior to injection, MDA-MB-231 cells were cultured in DMEM (Invitrogen #11965-092) supplemented with 10% (v/v) heat inactivated fetal bovine serum (FBS), 1% Hepes buffer solution (Invitrogen #15630-080) and 1% Penicillin/Streptomycin (Invitrogen #15140-122) at 37° C. in 5% CO2. Tumors were allowed to grow to approximately 50 mm^3 in size. Animals were randomized into three groups of five animals per group. At day ten post injection, mice with established tumors were treated intraperitoneally with (±)-cis-3-(5,6-dihydro-4H-pyrrolo[3,2,1-ij]quinolin-1yl)-4(1H-indol-3-yl) pyrrolidine-2,5-dione (160 mg/kg), (±)-trans-3-(5,6-dihydro-4H-pyrrolo[3,2,1-ij]quinolin-1-yl)-4(1H-indol-3-yl)pyrrolidine-2,5-dione (160 mg/kg) administered in iodinated poppy seed oil (lipiodol) as the vehicle at 10 mg/ml, or vehicle control. Drug or vehicle was administered every three days for a total of ten doses (q3d×10). Tumor size was evaluated periodically during the study. For each subject, tumor volume was calculated using the formula (L×W^2)/2 where L and W were the length and width of the tumor, respectively. The arithmetic mean tumor volume was calculated for each treatment group+/−standard error of the mean (SEM). […]

Another series deals with ERK1/2. Description: ERK1/2 phosphorylation, Western blot (Example 80). Format: cell-based, human. The following applies: MDA-MB-231 cells, 100 ng/ml HGF/SF 10 minutes. On the procedure:
(§1) MDA-MB-231 cells were serum-deprived overnight (16 hours) in the absence or in the presence of the indicated concentrations of the separate enantiomers (+)-trans-3-(5,6-dihydro-4H-pyrrolo[3,2,1-ij]quinolin-1-yl)-4(1H-indol-3-yl)pyrrolidine-2,5-dione and (−)-trans-3-(5,6-dihydro-4H-pyrrolo[3,2,1-ij]quinolin-1-yl)-4(1H-indol-3-yl)pyrrolidine-2,5-dione. Cells were treated with 100 ng/ml recombinant human Hepatocyte Growth Factor/Scatter Factor (HGF/SF) (R&D Systems #294-HG) for 10 minutes. Whole cell extracts were prepared in lysis buffer (20 mM Trwas-HC1 pH 7.5, 150 mM NaCl, 1 mM Na2EDTA, 1 mM EGTA, 1% Triton X-100, 2.5 mM sodium pyrophosphate, 1 mM beta-glycerophosphate, 1 mM Na3VO4, 1 μg/ml leupeptin, 1 mM phenylmethylsulfonyl fluoride) and sonicated. Protein concentration was measured by Bradford assay using the BioRad reagent (BioRad, Hercules, Calif.), according to the manufacturer's directions. Samples (50 μg of protein) were resolved by 8% SDS-PAGE under reducing conditions, and transferred onto a PVDF membrane (BioRad). […] Proteins were detected by incubation overnight at 4° C. in TBS-T with 5% milk and either a polyclonal antibody against phosphorylated c-Met (#3121), phosphorylated Erk1/2 (#9101), total Erk1/2 protein (#9102) (Cell Signaling Technology); or a monoclonal antibody against […] (A-5441) (Sigma), which was used as a control for total protein loading. […]
(In general: Immunoblotting shows a protein as a band on a membrane.)

Series [3] relates to MDA-MB-231 human breast cancer xenograft. Kind of series: Breast cancer xenograft model (Example 86). In kind it is in vivo, mice. As to the method: MDA-MB-231 human breast cancer cells were inoculated subcutaneously into female athymic nude mice (8.0×10^6 cells/mouse) and allowed to form palpable tumors. Once the tumors reached approximately 60 mm^3, the animals were treated orally with (−)-trans-3-(5,6-dihydro-4H-pyrrolo[3,2,1-ij]quinolin-1-yl)-4(1H-indol-3-yl)pyrrolidine-2,5-dione at 200 mg/kg or vehicle control daily (5 consecutive days, followed by a 2 day dosing holiday). (−)-trans-3-(5,6-dihydro-4H-pyrrolo[3,2,1-ij]quinolin-1-yl)-4(1H-indol-3-yl)pyrrolidine-2,5-dione was formulated in PEG 400:20% Vitamin E TPGS (60:40). The animals received a total of 20 doses of (−)-trans-3-(5,6-dihydro-4H-pyrrolo[3,2,1-ij]quinolin-1-yl)-4(1H-indol-3-yl)pyrrolidine-2,5-dione or vehicle control. Tumors were measured throughout treatment and the post-treatment observation period. Each point represents the mean±SEM of ten tumors. (See FIG. 10)

Another series concerns the target c-Met (Homo sapiens, UniProt P08581). Description: c-Met phosphorylation, Western blot (Example 80). In kind it is cell-based. The arrangement: whole cell extracts were prepared; endogenous in cells; host or cells: MDA-MB-231. Particulars: MDA-MB-231 cells, serum-deprived 16 hours, 100 ng/ml HGF/SF 10 minutes. On the procedure: as §1

c-Met, sequence (P08581 25-1390): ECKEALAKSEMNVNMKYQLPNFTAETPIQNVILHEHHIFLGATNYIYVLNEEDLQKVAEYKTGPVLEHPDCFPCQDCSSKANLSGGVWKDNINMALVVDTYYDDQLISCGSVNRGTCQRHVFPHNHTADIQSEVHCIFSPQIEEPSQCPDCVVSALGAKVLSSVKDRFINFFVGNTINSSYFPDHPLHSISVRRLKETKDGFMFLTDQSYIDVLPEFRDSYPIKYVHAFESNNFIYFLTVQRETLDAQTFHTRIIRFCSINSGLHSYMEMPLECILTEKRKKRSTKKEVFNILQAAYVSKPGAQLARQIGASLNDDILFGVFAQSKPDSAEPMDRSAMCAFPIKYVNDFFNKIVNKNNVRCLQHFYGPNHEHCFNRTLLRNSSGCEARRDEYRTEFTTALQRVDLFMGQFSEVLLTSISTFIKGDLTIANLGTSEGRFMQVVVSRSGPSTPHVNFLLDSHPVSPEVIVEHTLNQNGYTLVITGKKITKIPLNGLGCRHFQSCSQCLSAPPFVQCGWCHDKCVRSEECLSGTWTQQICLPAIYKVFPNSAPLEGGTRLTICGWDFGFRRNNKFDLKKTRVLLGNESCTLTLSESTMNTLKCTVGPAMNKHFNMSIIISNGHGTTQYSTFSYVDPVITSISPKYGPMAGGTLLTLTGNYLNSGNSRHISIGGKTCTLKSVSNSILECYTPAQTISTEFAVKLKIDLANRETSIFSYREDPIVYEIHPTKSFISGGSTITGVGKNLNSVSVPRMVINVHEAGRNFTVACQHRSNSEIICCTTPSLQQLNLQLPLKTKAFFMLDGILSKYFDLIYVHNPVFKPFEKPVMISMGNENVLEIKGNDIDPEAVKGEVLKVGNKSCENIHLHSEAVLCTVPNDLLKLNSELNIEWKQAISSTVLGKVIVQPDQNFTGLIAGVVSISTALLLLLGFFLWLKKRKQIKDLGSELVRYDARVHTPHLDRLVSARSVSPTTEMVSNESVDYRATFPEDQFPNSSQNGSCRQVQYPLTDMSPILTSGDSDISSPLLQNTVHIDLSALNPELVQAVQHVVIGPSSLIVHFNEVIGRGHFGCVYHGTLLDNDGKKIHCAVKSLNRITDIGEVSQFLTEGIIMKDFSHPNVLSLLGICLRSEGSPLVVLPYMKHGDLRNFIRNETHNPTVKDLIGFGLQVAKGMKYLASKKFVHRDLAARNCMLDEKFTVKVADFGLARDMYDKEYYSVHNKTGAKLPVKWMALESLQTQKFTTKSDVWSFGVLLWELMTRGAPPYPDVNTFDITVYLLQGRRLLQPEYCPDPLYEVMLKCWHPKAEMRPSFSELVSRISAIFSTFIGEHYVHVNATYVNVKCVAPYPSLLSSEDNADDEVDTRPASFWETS

As to `O=C1NC(=O)[C@@H](c2cn3c4c(cccc24)CCC3)[C@@H]1c1c[nH]c2ccccc12` (racemic) [(±)-Trans-3-(5,6-dihydro-4H-pyrrolo[3,2,1-ij]quinolin-1-yl)-4(1H-indol-3-yl)pyrrolidine-2,5-dione], the “Protein Kinase C kinase activity in comparison to carrier alone” value in series [1] is reported as “did not reduce kinase activity”. The “reduction of normalized mean tumor volume compared to vehicle treated control” value in series [2] turned out to be 43.5%.

Regarding `O=C1NC(=O)C(c2cn3c4c(cccc24)CCC3)C1c1c[nH]c2ccccc12` (single isomer, unassigned; (-)), in the series with ERK1/2, the “phosphorylation of ERK1/2” value was “decreases the phosphorylation of ERK1/2”. Further, in series [3] (200 mg/kg oral administration), the “change in body weight” value is “no significant change in body weight”. This compound had a Tumor growth inhibition in series [3] (200 mg/kg orally, daily 5 days on/2 off, 20 doses) of 79%. Also, at c-Met, the “concentration that inhibits basal and HGF-induced autophosphorylation of c-Met” value is “at least 500 nM”.

Source of the values: patent publication US7713969B2, “Compositions and methods for treatment of cancer” (ArQule, Inc., priority 2005, dated 2010).
